Test results: patent publication US5212179A, “Piperidine derivatives” (John Wyeth and Brother Limited, priority 1980, dated 1993)
Values belong to the compound of their own block, whether it stands above or below them.

Columns and labels:
[1] = test system: uptake of 5-HT into rat brain synaptosomes; assay: Inhibition of 5-HT uptake into rat brain synaptosomes; type: biochemical, male Sprague Dawley rats
Protocol: (§1) The test procedure involved obtaining synaptosomal preparations from male Sprague Dawley rats according to the method of Grey and Whittaker* as modified by Wood and Wyllie.** Aliquots of the synaptosomal preparation were then incubated with tritrated noradrenaline (NA) or 5-HT at a temperature of 37° C. for 4 minutes. The active synaptosomal accumulation of labelled substrate was measured by filtration and scintillation counting. The effect at a range of concentrations of test compound enabled IC50 values and selectivity ratios to be calculated.
(§2) * Grey and Whittaker,--J. Anat. 96 79 (1962)
(§3) ** Wood and Wyllie, J. Neurochemistry, 37, 795 (1981)

[2] = test system: uptake of ^3 H noradrenaline into rat brain synaptosomes; assay: Inhibition of 3H noradrenaline uptake into rat brain synaptosomes; type: biochemical, male Sprague Dawley rats; settings: 37° C., 4 minutes, read-out: IC50 NA uptake
Protocol: as §1, §2, §3

[3] = test system: neuronal uptake of 5-hydroxytryptamine into slices of cerebral cortex; assay: Inhibition of 5-hydroxytryptamine (5-HT) uptake in brain slices; type: biochemical; settings: rat cerebral cortex slices, relative to imipramine
Protocol: Compounds of formula I were tested for ability to inhibit 5-hydroxytryptamine (5-HT) uptake in brain slices using the following procedure:
Concentration-response curves for the test compound and for the standard agent, imipramine, are obtained. The potency of the test compound is expressed in proportion to that of imipramine. Thus, the potency ratio for the test compound [formula]

[4] = test system: p-chloroamphetamine (pCA) induced hyperactivity; assay: Inhibition of p-chloroamphetamine (pCA) induced hyperactivity in mice; type: in vivo; settings: Mus musculus, po, female mice, 50 mg/kg po, pCA 20 mg/kg ip, 10-30 minutes post pCA
Protocol: The following test procedure was used to test for ability to inhibit p-chloroamphetamine induced hyperactivity.
Three groups of 4 female mice (20-24 g) receive the test compounds (50 mg/kg po) and a fourth group the requisite volume of vehicle. Thirty minutes later all the animals are given 20 mg/kg p-chloroamphetamine (pCA) ip. The grouped mice are placed immediately in square plastic cages in activity monitors and their motor activity recorded over the period 10-30 minutes post pCA. This procedure is repeated three more times so that four groups of mice are used per treatment and each activity monitor is used with all treatments in turn. The inhibition of pCA induced hyperactivity is calculated thus: [formula] where C=mean activity of control groups 10-30 minutes post pCA.
T=mean activity of treated groups 10-30 minutes post pCA.
This test is used as an in vivo screen for detection of 5-hydroxytryptamineuptake inhibitors.
Compounds giving >50% inhibition are considered of special interest. In such a test the following compounds were particularly active: […]

[5] = test system: 5-hydroxy-L-tryptophan (5-HTP) induced behavioural syndrome; assay: Potentiation of 5-HTP induced behavioural syndrome, dose/response study in mice; type: in vivo; settings: Mus musculus, po, 5-HTP 80 mg/kg i.p.
Protocol: (§4) Thus, this test can be used as an indication of in vivo 5-HT uptake inhibition.
a) Dose/response study in mice
Groups of 12 (2 subgroups of 6) female mice (18-22g) were used per dose, each group being housed in a separate cage for the duration of the experiment. Mice were dosed p.o. with either test compound or vehicle (0.5% HPMC) and 30 minutes later received a threshold dose of 5-HTP (80 mg/kg i.p.) and were placed in perspex cylinders (12" diameter).
The dose that produced the syndrome in 50% of the mice was calculated using the method of Litchfield and Wilcoxon, […]

[6] = test system: 5-hydroxy-L-tryptophan (5-HTP) induced behavioural syndrome; assay: Potentiation of 5-HTP induced behavioural syndrome, dose/response study in rats; type: in vivo; settings: Rattus norvegicus, ip, 5-HTP 70 mg/kg i.p.
Protocol: as §4
b) Dose/Response study in rats
Groups of 6 male rats (150 g) were dosed with test compound suspended in HPMC. Thirty minutes later 5-HTP (70 mg/kg 5 i.p.) was given and the number of signs/rat recorded between 20 and 35 minutes post 5-HTP. Linear regression analysis of the results was performed and the ED50 calculated from this.

[7] = test system: p-chloroamphetamine (pCA)-induced stereotypy; assay: Inhibition of p-chloroamphetamine (pCA)-induced stereotypy in rats; type: in vivo, male Sprague-Dawley rats; settings: for ED50: Rattus norvegicus, po, 90 minutes before pCA 10 mg/kg i.p., results for succinate salt corrected for amount of active material, read-out: ED50 (dose required to produce 50% inhibition of pCA induced stereotypy); for ED50 / antagonism of pCA-induced stereotypy (in words): rats, p.o.; for antagonism of pCA-induced stereotypy (in words): 5 dose levels
Protocol: Representative compounds of formula IA were tested for their ability to inhibit pCA induced syndrome in rats by the standard procedure described below:
Inhibition of p-chloroamphetamine (pCA)-induced stereotypy
Vehicle or drug (5 dose levels) were administered p.o. to six groups of 6-8 male Sprague-Dawley rats (300-400 g) followed, 90 minutes later, by pCA (10 mg/kg i.p.). The animals were then placed in individual observation chambers and, 30 minutes after pCA administration, the intensity of the pCA-induced 5-HT syndrome was assessed according to the following scoring system: […]
Therefore, the maximum score for each animal was 10.
The inhibition of pCA induced stereotypy is calculated for each dose level as follows: [formula] where C=control group total score at 30 minutes post pCA.
T=group total score of treated group at 30 minutes post pCA.
For each dose a % effect is calculated.
The results obtained from the tests using 5 different dose levels of the drug allow the ED50 value (i.e. the dose required to produce 50% inhibition of pCA induced stereotypy) to be calculated.
The test was carried out using the free bases for compound C. Compound B was tested in the form of the succinate salt and the results corrected for amount of active material.

[8] = test system: 5-hydroxy-L-tryptophan induced behavioural syndrome; assay: Potentiation of 5-hydroxytryptophan (5-HTP)-induced behaviour in rats; type: in vivo, male Sprague-Dawley rats; settings: Rattus norvegicus, po, 5-HTP 50 mg/kg s.c., citrate salt, corrected for amount of base
Protocol: The compound (C) was also tested for its ability to potentiate 5-hydroxy-L-tryptophan induced behavioural syndrome in rats. The test procedure is described below
Potentiation of 5-hydroxytryptophan (5-HTP)-induced behaviour
Groups of 10 male Sprague-Dawley rats (310-360 g) were dosed p.o. with vehicle or drugs. Ninety minutes later 5-HTP (50 mg/kg s.c.) was administered and the animals placed in individual observation chambers (peripheral decarboxylation was prevented by 25 mg/kg i.p. carbidopa administered 60 minutes before 5-HTP). Head shakes were counted over the period 30-45 minutes after 5-HTP and the intensity of the 5-HT syndrome was scored immediately afterwards using the system described for the pCA procedure above. Percentage potentiation of syndrome was calculated as follows: […]
Percentage potentiation was calculated from the following: [formula]

IC50 ([1]; 37° C., 4 minutes): 44 nM | IC50 [2]: 20 µM
SMILES: O=C(NC(=O)c1ccccc1)NC1CCN(Cc2ccc3ccccc3c2)CC1 [Example 1, 1-Benzoyl-3-[1-(naphth-2-ylmethyl)piperid-4-yl]urea]
Selectivity Ratio ([1]; 5-HT uptake relative to NA uptake): 455 | potency ratio (imipramine=1.0) [3]: 8.8 | inhibition in vivo at 50 mg/kg [4]: 67.5% | ED50 [5]: 7.2 mg/kg | ED50 [6]: 5.3 mg/kg

SMILES: O=C(NC(=O)c1ccccc1)NC1CCN(Cc2cccc3ccccc23)CC1 [Example 2, 1-Benzoyl-3-[1-(naphth-1-ylmethyl)piperid-4-yl]urea]
inhibition in vivo at 50 mg/kg [4]: 56.4%

SMILES: CC(C)c1ccc(CN2CCC(NC(=O)NC(=O)c3ccccc3)CC2)cc1 [Example 3, 1-Benzoyl-3-[1-(4-isopropylbenzyl)piperid-4-yl]urea]
inhibition in vivo at 50 mg/kg [4]: 49%

SMILES: Cc1ccc(CN2CCC(NC(=O)NC(=O)c3ccccc3)CC2)cc1C [Example 6, 1-Benzoyl-3-[1-(3,4-dimethylbenzyl)piperid-4-yl]urea]
inhibition in vivo at 50 mg/kg [4]: 68.9%

SMILES: O=C(NC(=O)c1ccccc1)NC1CCN(Cc2ccc3c(c2)CCCC3)CC1 [Example 14, 1-Benzoyl-3-[1-(5,6,7,8-tetrahydro-naphth-2-ylmethyl)piperid-4-yl]urea]
inhibition in vivo at 50 mg/kg [4]: 69.4%

SMILES: CCc1ccc(CN2CCC(NC(=O)NC(=O)c3ccccc3)CC2)cc1 [Example 15, 1-Benzoyl-3-[1-(4-ethylbenzyl)piperid-4-yl]urea]
inhibition in vivo at 50 mg/kg [4]: 72.9%

SMILES: O=C(NC(=O)c1ccccc1)NC1CCN(Cc2ccc3c(c2)CCC3)CC1 [Example 20, 1-Benzoyl-3-[1-(indan-5-ylmethyl)-piperid-4-yl]urea]
inhibition in vivo at 50 mg/kg [4]: 59.3%

SMILES: CC(c1ccc2ccccc2c1)N1CCC(NC(=O)NC(=O)c2ccccc2)CC1 (centres unmarked) [Example 21, 1-Benzoyl-3-[1-(1-(naphth-2-yl)ethyl)-piperid-4-yl]urea]
inhibition in vivo at 50 mg/kg [4]: 71.7%

SMILES: O=C(NC(=O)c1cccnc1)NC1CCN(Cc2ccc3cc(F)ccc3c2)CC1 [Example 62, N[[[1-[(6-Fluoro-2-naphthalenyl)methyl]-4-piperidinyl]amino]carbonyl]-3-pyridinecarboxamide]
inhibition of syndrome ([7]; At 50 mg/kg): 99% | ED50 [7]: 2.5 mg/kg | antagonism of pCA-induced stereotypy (in words) [7]: antagonised pCA-induced stereotypy in a dose-dependent manner | ED50 [8]: 5 mg/kg

SMILES: O=C(NC(=O)c1ccncc1)NC1CCN(Cc2ccc3cc(F)ccc3c2)CC1 [Example 63, N-[[[1-[(6-Fluoro-2-naphthalenyl)methyl]-4-piperidinyl]amino]carbonyl]-4-pyridinecarboxamide]
ED50 [7]: 3.8 mg/kg | antagonism of pCA-induced stereotypy (in words) [7]: antagonised pCA-induced stereotypy in a dose-dependent manner

SMILES: CN(C)CCCN1c2ccccc2CCc2ccc(Cl)cc21 [clomipramine, reference compound]
ED50 [5]: 18 mg/kg | ED50 [6]: 39.2 mg/kg

SMILES: CN(C)CCCN1c2ccccc2CCc2ccccc21 [imipramine, reference compound]
potency ratio (imipramine=1.0) [3]: 1.0
